According to patent publication US4495101A, “Antiinflammatory 5H-tetrazolo (5,1-c)(1,4)benzodiazepine derivatives” (American Home Products Corporation, priority 1983, dated 1985):

Each compound was assayed on carrageenan-induced paw edema (assay: rat carrageenan edema test (paw volume, mercury plethysmography)). Conditions: 150 mg/kg oral, one hour prior to 1% carrageenan, read three hours after carrageenan, vs control, *p ≤ 0.05, **p ≤ 0.01.
Assay type: in vivo, male Sprague-Dawley or Charles River rats
Experimental: The anti-inflammatory activity of the claimed compounds was established by direct measurement of the effect of structurally representative compounds in the rat carrageenan edema test. This standard pharmacological procedure for determining antiinflammatory effects of a compound is performed by subcutaneous injection in the right paw of 6 animals (140-180 grams, male Sprague-Dawley or Charles River rats) with 0.1 milliliter of 1 percent carrageenan at zero time. The compounds representative of this invention are administered orally one hour prior to carrageenan at 150 milligrams per kilogram. The paw volume (edema in milliliters) is determined at zero time and three hours after carrageenan administration by mercury plethysmographic readings (milliliter) of the paw. From the change in paw volume compared to control, the percent inhibition of edema is determined. The results obtained with the compounds of Examples 1, 9, 17 and 18, which are representative of the other compounds of the invention, are as follows: […]

| SMILES | % Inhibition of Edema [%] |
| --- | --- |
| O=C1Nc2ccc(Cl)cc2Cn2nnnc21 [Example 1, 7-Chloro-5,10-dihydro-11H-tetrazolo[5,1-c][1,4]-benzodiazepine-11-one] | 39 |
| S=C1Nc2ccc(Cl)cc2Cn2nnnc21 [Example 9, 5,10-Dihydro-7-Chloro-11H-tetrazolo[5,1-c][1,4]-benzodiazepine-11-thione] | 42 |
| CN1CCN(C2=Nc3cc(Cl)ccc3Cn3nnnc32)CC1 [Example 17, 8-Chloro-11-(4-methyl-1-piperazinyl)-5H-tetrazolo[5,1-c][1,4]benzodiazepine] | 42 |
| Cc1ccc2c(c1)Cn1nnnc1C(N1CCN(C)CC1)=N2 [Example 18, 7-Methyl-11-(4-methyl-1-piperazinyl)-5H-tetrazolo[5,1-c][1,4]benzodiazepine] | 33 |
